Publication PMC3227451, “Structure-based development of novel sirtuin inhibitors” (Aging (Albany NY), 2011)

Experiments:
[1] = molecular target: T1, Sirt2 (Homo sapiens, UniProt Q8IXJ6); assay: Fluor-de-Lys peptide deacetylation assay, Sirt2; type: biochemical
T1 sequence (Q8IXJ6 34-356): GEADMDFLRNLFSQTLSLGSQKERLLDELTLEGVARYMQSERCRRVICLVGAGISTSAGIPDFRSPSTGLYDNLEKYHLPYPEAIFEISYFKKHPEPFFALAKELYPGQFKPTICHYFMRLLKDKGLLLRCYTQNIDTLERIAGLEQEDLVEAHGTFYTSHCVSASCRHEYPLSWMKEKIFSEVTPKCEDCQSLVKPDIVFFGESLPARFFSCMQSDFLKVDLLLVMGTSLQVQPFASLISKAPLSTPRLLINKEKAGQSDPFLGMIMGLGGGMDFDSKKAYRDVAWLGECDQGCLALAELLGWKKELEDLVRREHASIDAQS
In short: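 Full-length human Sirt2 (E. coli-expressed, purified, His-tag removed) incubated 30 min at 37 °C with 0.1 mM FdL-2 peptide (QPK(acetyl-K)), 0.5 mM NAD+ and compound at 100 μM final in kit buffer. Values corrected with compound-only (no Sirtuin) controls; screen in duplicate, dose-response in triplicate.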

[2] = molecular target: T2, Sirt6 (Homo sapiens, UniProt Q8N6T7); assay: Fluor-de-Lys peptide deacetylation assay, Sirt6; type: biochemical
T2 construct: Sirt6 residues 13-308; His-tag with linker comprising a TEV protease cleavage site (N, cleaved yes); made in house; host or cells: E. coli Rosetta2
In short: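 Fluor-de-Lys kit run with FdL-1 peptide RHK(acetyl-K), 0.1 mM, plus 0.5 mM NAD+. Compounds at 100 μM final, 30 min at 37 °C, then trypsin developer for 45 min at room temperature.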

T2 sequence (Q8N6T7 13-308): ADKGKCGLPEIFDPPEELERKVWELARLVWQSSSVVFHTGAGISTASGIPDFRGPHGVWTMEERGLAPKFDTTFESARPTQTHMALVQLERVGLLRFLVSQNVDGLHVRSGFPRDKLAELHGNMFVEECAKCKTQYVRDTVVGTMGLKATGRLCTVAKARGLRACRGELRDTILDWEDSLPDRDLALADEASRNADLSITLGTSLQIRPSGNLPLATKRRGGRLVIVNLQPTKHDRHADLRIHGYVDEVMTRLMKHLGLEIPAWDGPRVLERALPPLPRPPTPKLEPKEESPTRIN

For `CC12Cc3cnc(-c4ccccc4)nc3CC1CCC1C2CCC2(C)C1CCC2(C)O` (stereo not shown) [CSC13, 1,11a,13a-trimethyl-8-phenyl-2,3,3a,3b,4,5,5a,6,11,11a,11b,12,13,13a-tetradecahydro-1H-cyclopenta[5,6]naphtho[1,2-g]quinazolin-1-ol], the “Effect on the activity of Sirt2” value [1] was “inhibition (key: inhibition: significant inhibitory effects (>25% loss of activity); ---: no such effect)”, the IC50 [1] was 9.7 ± 1.5 µM and the inhibition at 100 µM ([1]; read-out: Sirt2 inhibition in the screen) was about 80%. For the same molecule, the “Effect on the activity of Sirt6” value [2] was “--- (key: inhibition: significant inhibitory effects (>25% loss of activity); ---: no such effect)”.
